The values that follow come from a melting point compilation (Tetko et al.; mined from patent text by program, amines drawn as free bases though some values may be those of a salt).

Structures are written as SMILES.

The melting point is the temperature, or range, at which the solid turns liquid. Turning to `CCCc1c(OCCCCCOc2cc3c(cc2C(C)=O)CC[C@@H](C(=O)O)O3)ccc(C(C)=O)c1O`, the melting point is 94 to 97.5 °C.

For the molecule `CN(C)CCSC1=Nc2ccc(Br)cc2C(c2ccccc2F)=NC1`, the melting point fell in the range of 105 to 108 °C.

As to `N#CCCNC(=O)c1cc(-c2cccc3nn(Cc4cccc(C(F)(F)F)c4)cc23)ccn1`, the melting point fell in the range of 166 to 167 °C. `CC(C)c1ccc2nc3ccc(C(=O)OCC#N)cn3c(=O)c2c1` returned a melting point of 186 to 188 °C. In turn, `CC(C)(C)OC(=O)N[C@@H](C=O)Cc1ccc(OCc2ccccc2)cc1` had a melting point of 98 to 99 °C. As for `COc1cc2c(Nc3ccc(Cl)cc3F)ncnc2cc1OCCN(C)c1cc(C)nc(C)c1`, the melting point was in the range of 208 to 212 °C. On to `CCC(Oc1cncc(Cl)c1)C(=O)O` (configuration not stated), for which the melting point fell in the range of 98 to 101 °C. In turn, `ONC(=S)CCc1ccc(F)cc1` came in with a melting point of 115 to 116 °C.

As for `CC12CCC(OC(=O)c3ccc([N+](=O)[O-])cc3)CC1=CCC1C2CCC2(C)C(=NO)CCC12` (configuration not stated), the melting point is 185 to 188 °C. As to `CC(=O)N1CCC(Oc2ccc([N+](=O)[O-])cc2)(c2ccccc2)CC1`, the melting point lay within 145 to 150 °C.

The molecule `CCOC(=O)C=Cc1ccc(OCCCc2ccccc2)c([N+](=O)[O-])c1` had a melting point of 67 to 69 °C. As for `Cc1ccc(C(C)(C)Cl)cc1C`, the melting point is -20 to -19 °C. `CC(C)C(C)(C#N)N1C(=O)c2ccc3ccsc3c2C1=O` (configuration not stated) showed a melting point of 99 to 107 °C.

`O=C1c2c(F)ccc(F)c2C(=O)N1CCN1CCC(c2noc3cc(F)ccc23)CC1` had a melting point of 144 to 145 °C.

As for `CCCCc1nc2c(N)nc3ccccc3c2n1CCOCCS(C)(=O)=O`, the melting point fell in the range of 168 to 170 °C. For `CN1CC(=O)N(c2cc(Cc3n[nH]c(=O)c4ccccc34)ccc2F)C(=O)C1`, the melting point was 205 to 208 °C. For the molecule `N#Cc1cncnc1N1CCc2ccccc2CC1`, the melting point fell in the range of 148 to 150 °C. `Cc1ncccc1CCCC(C)NC(=O)C(O)c1ccccc1` (configuration not stated) displayed a melting point of 133 to 134 °C. The result for `CC(C)c1ccc2c(c1)c(S(=O)(=O)c1ccccc1)c(CC(C)(C)C(=O)O)n2Cc1ccc(N)cc1` reads 290 °C; that for `Cn1nnnc1-c1cnc2ccc(F)cc2c1O`, above 300 °C. `C[C@H]1C(=O)NC(=O)N1CC(=O)Nc1c2c(nc3ccccc13)CCCC2` showed a melting point of 260 to 263 °C.

`CN1CCN(C2CC3C4CCC5CC(O)C(N6CCC(=O)CC6)CC5(C)C4CCC3(C)C2O)CC1` (configuration not stated) had a melting point of 225 to 229 °C.

As for `CNC(=O)Oc1ccc2c(c1)CCN2`, the melting point fell in the range of 109 to 112 °C. For the molecule `CC(C)(C(=O)Nc1cccc(C(F)(F)F)c1)N1COC(C(F)F)=C(c2ccccc2)C1=O`, the melting point was in the range of 58 to 60 °C. The result for `Cc1cc(CO)ccc1NC(=O)CN(C(=O)OC(C)(C)C)c1ccc(F)c(F)c1` reads 134 to 136 °C; that for `COC(=O)c1cc([N+](=O)[O-])c(Cl)c(S(=O)(=O)Cl)c1`, 92 to 94 °C; that for `COC(=O)C1=CCCn2c(=O)c3ccccc3c(=O)n21`, 156 to 157 °C. Consider `COc1ccsc1NC(=O)Nc1cc([N+](=O)[O-])ccc1O`, for which the melting point amounted to 173 °C.

With `CC(=O)N1c2cc(C)c(S(=O)(=O)C[N+](=O)[O-])c(C)c2CC1C` (configuration not stated), the melting point is 175 °C. Under `O=C(Cc1ccccc1)Nc1ccccc1OCc1ccccc1` stands 96 to 98 °C; under `O=C1NC(=S)N/C1=C\c1c[nH]c2ncc(-c3ccccc3)cc12`, 265 to 270 °C; under `Clc1c[nH]c2ncnc(N3CCCCC3)c12`, 170 to 172 °C. Consider `CC(C)(C)C(=O)COc1ccc(Cl)cc1Cl`, for which the melting point turned out to be 65 °C. `CCOP(=O)(Cc1ccc(NC(=O)c2cc(=O)c3ccccc3o2)cc1)OCC` returned a melting point of 153 to 154 °C. The result for `CCCn1c(CCOC)nc2c(N)nc3cc(OC(=O)NC(C)C)ccc3c21` reads 144 to 146 °C; that for `COC(=O)c1ccc(COc2ccc3cc(-c4ccc(-c5ccccc5)n4Cc4ccc(C(F)(F)F)cc4)ccc3c2)c(C(=O)OC)c1`, 172 to 174 °C. The result for `C=CCOC(=O)NC(C)(C)c1ccc(-c2nc(Nc3ccc(CCn4ccnc4)cc3)ncc2Cl)cc1` reads 72 to 78 °C; that for `CC1Cc2ccccc2N1N` (configuration not stated), 37 to 38 °C; that for `Cc1oc(C=Cc2cccc(Cl)c2)nc1CO`, 147 to 148 °C. Turning to `CC(C(=O)NO)c1ccc(C(=O)c2cccs2)cc1` (configuration not stated), the melting point turned out to be 144 °C. Under `CCCCOCCOc1ccc(-c2ccc3c(c2)C=C(C(=O)Nc2ccc(C(O)c4ccccn4)c(OCC(F)(F)F)c2)CCN3C(=O)C(F)(F)F)cc1` (configuration not stated) stands 178 to 181 °C. With `C#CCN1CCC=C(c2ccc(C(C)(C)CCCCCC)cc2O)C1`, the melting point fell in the range of 116 to 117 °C. `O=C(O)c1cn(C2CC2)c2cc(N3CC4CC4C3)c(F)cc2c1=O` (configuration not stated): the melting point stood at 290 °C. `Cn1c(COc2ccc(C(C)(CCC(=O)O)c3ccc(OCc4nc5ccccc5n4C)cc3)cc2)nc2ccccc21`: the melting point fell in the range of 110 to 112 °C. For `Cc1c(NC(=O)c2cccc(Oc3ccccc3)c2)ccc2cc(CN3CCCC3)cnc12`, the melting point was in the range of 147 to 148 °C.

`O=C(O)c1ccc2c(Cl)ccnc2c1`: the melting point is above 235 °C. `CC(C)N1CCN(Cc2ccc(-c3ccc4c(Nc5ccc(Sc6nccn6C)c(Cl)c5)c(C#N)cnc4c3)cc2)CC1`: the melting point was in the range of 193 to 195 °C. As to `O=C(O)Cc1c(C(=O)c2ccccc2)[nH]c2ccccc12`, the melting point was in the range of 194 to 196 °C. Consider `N#Cc1cc(C(O)CN(Cc2ccccc2)Cc2ccccc2)cc2c1NCC2` (configuration not stated), for which the melting point fell in the range of 139 to 140 °C. In the case of `COCOc1ccccc1-c1cc(-c2cccc(CN=[N+]=[N-])c2)c(C#N)c(NC(=O)c2cccs2)n1`, the melting point was 139 to 140 °C. In turn, `CC(C)(C)c1cc([PH](=O)O)cc(C(C)(C)C)c1O` gave a melting point of 106 to 111 °C. `COc1ccc(CNc2nc(C)nc(C)c2Cl)cc1O` displayed a melting point of 165 to 168 °C.

For the molecule `O=C(CC(c1ccccc1)c1ccccc1)Nc1ccccc1Cl`, the melting point amounted to 181 °C. With `Cn1cc(Oc2ccc(Cl)c(Cl)c2)c(=O)c(-c2cccc(C(F)(F)F)c2)c1`, the melting point lay within 127 to 129 °C. Regarding `CCOC(=O)c1cnc(NN)nc1C(F)(F)F`, the melting point was 89 to 90 °C.

As for `Cc1c(NC(=O)CC(C)(C)C)c(C)c2c(c1C(O)CO)OCC2c1ccc(C(C)C)cc1` (configuration not stated), the melting point fell in the range of 159 to 161 °C.

Regarding `CCC1(CC)C(=O)N(C(C)(C)C)CC(C)(C)N1OC(=O)C(c1ccccc1)c1ccccc1`, the melting point worked out at 109 °C. The result for `CCCCCCCCCCCCCCCCCCOc1cc(OCCCOc2ccccc2)cc(N(CC(=O)O)CC(=O)O)c1` reads 99 to 102 °C; that for `COc1c(Cl)cc(F)c(-n2ncc(C(F)(F)F)cc2=O)c1N`, 156 to 157 °C. Under `CCN(CC)CCOc1ccc(Nc2ncc3c(n2)NC(=O)N(c2c(Cl)cccc2Cl)C3)cc1` stands 248 °C; under `CCOC(=O)c1nc(-c2cccc([N+](=O)[O-])c2)cs1`, 149 to 150 °C.

The molecule `C=C(C)Cc1c(O)c(C)c(C)c2c1CC(C)N2C=O` (configuration not stated) showed a melting point of 133 to 135 °C. Turning to `CCN(CC)C(=O)C(C)(C)n1cc(C)c(-c2ccccc2)n1`, the melting point is 50 to 52 °C.

In turn, `O=C(O)c1c(-c2ccccc2)c2cc(Cl)c(Cl)cc2oc1=O` registered a melting point of 233 to 234 °C.

For the molecule `CN1C(=O)N(c2c(Cl)cccc2Cl)Cc2cnc(NCCc3ccc(N)cc3)nc21`, the melting point was 174 to 175 °C. In turn, `CCCCCN(CC(=O)OCC)C(=O)C(CCC(=O)O)CS(=O)(=O)c1ccc2ccccc2c1` (configuration not stated) returned a melting point of 77 to 80 °C.

Molecule `CCOC(=O)NCCS(=O)CC(=O)NCC=CCOc1cccc(CN2CCCCC2)c1` (configuration not stated) gave a melting point of 64.7 to 66.1 °C. The molecule `O=C1CC(c2ccccc2)Cc2c1ccn2Cc1ccccc1` (configuration not stated) displayed a melting point of 122 to 123 °C. `CCOC(=O)NN(C)C(=S)Nc1ccc(Cl)cc1F`: the melting point stood at 151 °C.

In turn, `CN(C)S(=O)(=O)N(C)c1ccc(C(=O)Nc2ccc(Cl)cc2)cc1` yielded a melting point of 155 to 156 °C. Molecule `COc1nc2nc(SCc3ccccc3)nn2cc1C` gave a melting point of 145 to 146 °C. The molecule `COC(=O)c1ccc(CSC)nc1C1=NC(C)(C(C)C)C(=O)N1` (configuration not stated) yielded a melting point of 114 to 115 °C.

`O=c1[nH]c2cc(F)c(O)c([N+](=O)[O-])c2[nH]c1=O` gave a melting point above 360 °C. The molecule `COc1cc2c(c(OC(C)=O)c1OC)=NC(=O)C(=O)N=2` had a melting point of 321 to 322 °C.

As to `CCC(CC)n1nnc2c(Cl)nc(C)cc21`, the melting point lay in the range of 78 to 79 °C. On to `Nc1ccc2c(S(=O)(=O)c3ccccc3)c[nH]c2c1`, for which the melting point was 144 to 146 °C. Molecule `O=C(c1cccs1)c1cnn2c(-c3cccc(NCC4CC=CCC4)c3)ccnc12` (configuration not stated) showed a melting point of 78 to 81 °C. Turning to `CCCNC(=O)[C@H]1CN(c2ccc(N3CCOCC3)c(F)c2)C(=O)O1`, the melting point is 165 to 167 °C. `CCCOC1=Nc2ccc(Cl)cc2C(=CCCN)N1CCC` had a melting point of 50 to 51 °C. In the case of `N[C@@]1(C(=O)O)C[C@H](NC(=O)Nc2cccc3ccccc23)[C@H]2[C@H](C(=O)O)[C@H]21` (relative stereo), the melting point is above 275 °C. `COc1cc2c(cc1OC)N(C)C(=O)CN=C2c1cccc(-c2ccc(Cl)cc2)c1` registered a melting point of 131 °C. Take `O=C(O)COc1cccc2c1CCC(Cn1nc(C(c3ccccc3)c3ccccc3)ccc1=O)C2` (configuration not stated): the melting point is 144 to 145 °C. In the case of `Cn1c(C#N)ccc1-c1ccc2c(c1)C(C)(c1cccs1)OCC(=O)N2` (configuration not stated), the melting point fell in the range of 197 to 198 °C. Under `CC(=O)OCc1cccc(Cl)c1NS(=O)(=O)c1nc2nc(C)cc(C)n2n1` stands 214 to 217 °C. Under `OCc1cn(Cc2cc(OCc3ccccc3)cc(OCc3ccccc3)c2)cc1-c1ccccc1` stands 115 to 116 °C. The molecule `CC1(C)CCC(C)(C#N)c2ccccc21` (configuration not stated) came in with a melting point of 46 °C. In the case of `CS(=O)(=O)Nc1cccc(C=C2SC(=S)NC2=O)c1`, the melting point was in the range of 260 to 265 °C.
